Tested on: HTRA2-specific interaction partners FNLA, NCKAP1, POTEE, PSMC1, SEC13
Assay: Targeted MS analysis (accurate inclusion mass screening, AIMS) of HTRA2 Co-IP eluates
Parameters: species or system house swine (Sus scrofa)
Settings: repeated Co-IP, n = 3 biological replicates, Figure S3, CDR p < 0.05, UCF-101 p > 0.05
Source text: Thereby, the peptides of interest were listed in the software inclusion list and the LTQ Orbitrap XL MS system only required MS/MS scans of the parent ions if the listed peptide was detected with an accurate mass and charge state. […] The selected peptides needed to be fully tryptic with a maximum of one missed cleavage, as described earlier. For this experiment, we repeated the Co-IP of the HTRA2-specific protein interaction partners ± treatments (see method Section 2.4) and subjected the respective eluate fractions to further in-solution trypsin digestion, as described elsewhere. In this case, the LTQ Orbitrap XL MS system was coupled online to an EASY-nLC 1200 system (Thermo Fisher Scientific, Rockford, IL, USA) using a PepMap C18 column system (75 µm × 500 mm; Thermo Fisher Scientific, Rockford, IL, USA). The dynamic exclusion mode was applied as follows: repeat count = 3, repeat duration = 30 s, exclusion size list = 100, exclusion time = 180 s, and the exclusion mass width ± 10 ppm. Protein identification and quantification were performed as described in Section 2.7.
For further validation of the HTRA2-specific interaction partners, we performed a targeted MS analysis via accurate inclusion mass screening (AIMS) technology. […] This time, the LC-MS system “only” recorded the unique peptide sequences of the previously identified HTRA2 interaction partners. […]

Compound	Abundances of the co-enriched target proteins FNLA, NCKAP1, POTEE, PSMC1 and SEC13 compared with the HTRA2 group
ASGYTFTNYGLSWVR [CDR, synthetic peptide encoding a complementary-determining region 1 (CDR1) of polyclonal antibody molecules]	significantly diminished
O=C1C(=Cc2ccc(-c3ccccc3[N+](=O)[O-])o2)C(=O)N(c2ccccc2)C(=S)N1c1ccccc1 [UCF-101, reference compound]	slight decrease

— PMC8427973, “Regulation of the HTRA2 Protease Activity by an Inhibitory Antibody-Derived Peptide Ligand and the Influence on HTRA2-Specific Protein Interaction Networks in Retinal Tissues” (Biomedicines, 2021)
